Measurements published in patent US20240132464A1, “HETEROCYCLIC COMPOUNDS AS E3 LIGASE INHIBITORS” (Accutar Biotechnology Inc., priority 2022, published 2024).

Molecular target: T1, GID4 (Uniprot ID: Q81VV7, residues 124-289) (Homo sapiens, UniProt Q8IVV7)
T1 construct: GID4 (Uniprot ID: Q81VV7, residues 124-289)
T1 sequence (Q8IVV7 124-289): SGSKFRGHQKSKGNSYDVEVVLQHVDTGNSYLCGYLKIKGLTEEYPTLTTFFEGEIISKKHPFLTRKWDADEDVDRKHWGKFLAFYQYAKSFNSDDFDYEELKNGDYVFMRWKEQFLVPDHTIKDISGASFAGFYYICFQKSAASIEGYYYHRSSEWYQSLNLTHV
Assay: GID4 competitive binding assay (AlphaScreen, GID4/degron peptide PGLW)
Conditions: 24 nM GID4, 48 nM biotinylated degron peptide PGLW, 4° C., read-out: IC50 (Inhibition of GID4/Degron binding by test compounds)
How it was run: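 His-tagged human GID4 (residues 124-289, 24 nM) pre-incubated 2 h at 4 °C with 48 nM biotinylated PGLW peptide and compound in HEPES pH 7.5 buffer, 2% DMSO (final). AlphaScreen streptavidin donor/Ni-NTA acceptor beads added for 1 h; IC50 from nonlinear fit of % inhibition versus DMSO.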

SMILES	IC50
CN(C)CCNC(=O)c1n[nH]c2ccc(-c3ccc4ncnc(N)c4c3)cc12 [Compound 329, 5-(4-aminoquinazolin-6-yl)-N-(2-(dimethylamino)ethyl)-1H-indazole-3-carboxamide]	0.5 to 5 µM
Nc1nc(N2CCO[C@@H](c3ccccc3Br)C2)c2cc[nH]c2n1 (racemic) [Compound 40, (S/R)-4-(2-(2-bromophenyl)morpholino)-7H-pyrrolo[2,3-d]pyrimidin-2-amine]	0.5 to 5 µM
Nc1nccc2ccc(-c3ccc4[nH][nH]c(=O)c4c3)cc12 [Compound 1, 5-(1-aminoisoquinolin-7-yl)-1,2-dihydro-3H-indazol-3-one]	0.5 to 5 µM
Nc1nc(NCC2CC2)cc(N2CCOC(c3ccccc3Br)C2)n1 (single isomer, unassigned) [Compound 77, R or S-6-(2-(2-bromophenyl)morpholino)-N^4-(cyclopropylmethyl)pyrimidine-2,4-diamine]	> 5 µM
CNc1cc(N2CCN[C@@H](c3ccccc3Br)C2)nc(NC)n1 (stereo in doubt) [Compound 130, (S/R)-6-(3-(2-bromophenyl)piperazin-1-yl)-N2,N4-dimethylpyrimidine-2,4-diamine]	> 5 µM
CN1CCN(c2cc(NCC3CC3)nc(N)n2)C[C@@H]1c1ccccc1Br (racemic) [Compound 100, (S/R)-6-(3-(2-bromophenyl)-4-methylpiperazin-1-yl)-N4-(cyclopropylmethyl)pyrimidine-2,4-diamine]	> 5 µM
CN(C)C1CCN(C(=O)c2cccc(-c3ccc4c(=O)[nH]ccc4c3)c2)C1 (stereo not shown) [Compound 350, 6-(3-(3-(dimethylamino)pyrrolidine-1-carbonyl)phenyl)isoquinolin-1(2H)-one]	> 5 µM
CN1CCC(C)(NC(=O)c2n[nH]c3ccc(-c4ccc5ccnc(N)c5c4)cc23)CC1 [Compound 10, 5-(1-aminoisoquinolin-7-yl)-N-(1,4-dimethylpiperidin-4-yl)-1H-indazole-3-carboxamide]	< 0.5 µM
Brc1ccccc1C1CN(c2cc(NC3CC3)ncn2)CCN1 (stereo not shown) [Compound 79, 6-(3-(2-bromophenyl)piperazin-1-yl)-N-cyclopropylpyrimidin-4-amine]	> 5 µM
Nc1cc(N2CCNC(c3cnc4ccccn34)C2)nc(N)n1 (racemic) [Compound 119, (S/R)-6-(3-(imidazo[1,2-a]pyridin-3-yl)piperazin-1-yl)pyrimidine-2,4-diamine]	> 5 µM
CN(C)CCNC(=O)c1n[nH]c2ccc(-c3ccc4ccnc(N)c4c3)nc12 [Compound 327, 5-(1-aminoisoquinolin-7-yl)-N-(2-(dimethylamino)ethyl)-1H-pyrazolo[4,3-b]pyridine-3-carboxamide]	0.5 to 5 µM
Oc1cc(C2=CCNCC2)cc2cccnc12 [Compound 324, 6-(1,2,3,6-tetrahydropyridin-4-yl)quinolin-8-ol]	0.5 to 5 µM
CN(C)[C@H]1CC[C@H](NC(=O)c2ccc(-c3cc(O)c4ncccc4c3)cc2)CC1 [Compound 287, N-(trans-4-(dimethylamino)cyclohexyl)-4-(8-hydroxyquinolin-6-yl)benzamide]	< 0.5 µM
CC1CNCCN1c1cc(-c2ccnn2C)c2ccnc(-c3ccn[nH]3)c2n1 (stereo not shown) [Compound 363, 4-(1-methyl-1H-pyrazol-5-yl)-2-(2-methylpiperazin-1-yl)-8-(1H-pyrazol-5-yl)-1,7-naphthyridine]	> 5 µM
Nc1nc(N2CCCC(c3ccn[nH]3)C2)c2cnccc2n1 (stereo not shown) [Compound 218, 4-(3-(1H-pyrazol-5-yl)piperidin-1-yl)pyrido[4,3-d]pyrimidin-2-amine]	> 5 µM
Nc1nc(N2CCNC(c3ccccc3Br)C2)c2cc[nH]c2n1 (single isomer, unassigned) [Compound 56, (R/S)-4-(3-(2-bromophenyl)piperazin-1-yl)-7H-pyrrolo[2,3-d]pyrimidin-2-amine]	0.5 to 5 µM
Nc1nccc2ccc(-c3ccc4[nH]ncc4c3)cc12 [Compound 361, 7-(1H-indazol-5-yl)isoquinolin-1-amine]	< 0.5 µM
CN(C)CCNC(=O)c1ccc(-c2cc(O)c3ncncc3c2)cc1 [Compound 270, N-(2-(dimethylamino)ethyl)-4-(8-hydroxyquinazolin-6-yl)benzamide]	< 0.5 µM
Nc1nccc2ccc(-c3csc(C(=O)N4CCCC4)c3)cc12 [Compound 349, (4-(1-aminoisoquinolin-7-yl)thiophen-2-yl)(pyrrolidin-1-yl)methanone]	> 5 µM
CNCCCNC(=O)c1ccc(-c2cc(O)c3ncccc3c2)cc1 [Compound 303, 4-(8-hydroxyquinolin-6-yl)-N-(3-(methylamino)propyl)benzamide]	< 0.5 µM
CN(C)CCCNC(=O)c1c(Cl)cc(-c2cc(O)c3ncccc3c2)cc1Cl [Compound 318, 2,6-dichloro-N-(3-(dimethylamino)propyl)-4-(8-hydroxyquinolin-6-yl)benzamide]	< 0.5 µM
Cn1cc(CNC(=O)c2n[nH]c3ccc(-c4ccc5ccnc(N)c5c4)cc23)cn1 [Compound 328, 5-(1-aminoisoquinolin-7-yl)-N-((1-methyl-1H-pyrazol-4-yl)methyl)-1H-indazole-3-carboxamide]	< 0.5 µM

Continued, values first:

IC50	SMILES
0.5 to 5 µM	Nc1cc(N2CCC(c3cnc4ccccn34)C2)nc(N)n1 (stereo not shown) [Compound 255, 6-(3-(imidazo[1,2-a]pyridin-3-yl)pyrrolidin-1-yl)pyrimidine-2,4-diamine]
0.5 to 5 µM	CC(C)c1cc(N2CCCC(n3c(=O)[nH]c4ccccc43)C2)nc(N)n1 (stereo not shown) [Compound 252, 1-(1-(2-amino-6-isopropylpyrimidin-4-yl)piperidin-3-yl)-1,3-dihydro-2H-benzo[d]imidazol-2-one]
> 5 µM	CC(C)c1cc(N2CC[C@@H](F)[C@@H](c3ncn4ccccc34)C2)nc(N)n1 (racemic) [Compound 229, 4-((3R,4R)-4-fluoro-3-(imidazo[1,5-a]pyridin-1-yl)piperidin-1-yl)-6-isopropylpyrimidin-2-amine]
0.5 to 5 µM	Nc1nc(N2CCO[C@@H](c3ccccc3Br)C2)c2[nH]ccc2n1 (racemic) [Compound 47, (S/R)-4-(2-(2-bromophenyl)morpholino)-5H-pyrrolo[3,2-d]pyrimidin-2-amine]
< 0.5 µM	CC(C)c1cc(N2CCCC(c3cnc4ccccn34)C2)c2cc[nH]c2n1 (stereo not shown) [Compound 370, 3-(1-(6-isopropyl-1H-pyrrolo[2,3-b]pyridin-4-yl)piperidin-3-yl)imidazo[1,2-a]pyridine]
0.5 to 5 µM	CC(C)c1cc(N(C)CCc2c[nH]c3ccccc23)nc(N)n1 [Compound 179, N4-(2-(1H-indol-3-yl)ethyl)-6-isopropyl-N4-methylpyrimidine-2,4-diamine]
< 0.5 µM	Nc1nc(NC2CC2)cc(N2CCN[C@@H](c3ccccc3Br)C2)n1 (racemic) [Compound 122, (S/R)-6-(3-(2-bromophenyl)piperazin-1-yl)-N4-cyclopropylpyrimidine-2,4-diamine]
0.5 to 5 µM	CC(C)c1cc(N2CCCC(c3c[nH]c4ccccc34)C2)nc(N)n1 (stereo not shown) [Compound 249, 4-(3-(1H-indol-3-yl)piperidin-1-yl)-6-isopropylpyrimidin-2-amine]
0.5 to 5 µM	CC(C)c1cc(N2CCCC(c3ncc4ccccn34)C2)nc(N)n1 (stereo not shown) [Compound 244, 4-(3-(imidazo[1,5-a]pyridin-3-yl)piperidin-1-yl)-6-isopropylpyrimidin-2-amine]
< 0.5 µM	CC(C)c1cc(N2CCNC(c3cc(O)ccc3Br)C2)nc(N)n1 (stereo not shown) [Compound 163, 3-(4-(2-amino-6-isopropylpyrimidin-4-yl)piperazin-2-yl)-4-bromophenol]
0.5 to 5 µM	CNc1cc(N2CCN[C@@H](c3ccccc3)C2)nc(N)n1 (racemic) [Compound 129, (S/R)-N4-methyl-6-(3-phenylpiperazin-1-yl)pyrimidine-2,4-diamine]
< 0.5 µM	CNc1cc(N2CCN(C)[C@@H](c3ccccc3Br)C2)nc(N)n1 (stereo in doubt) [Compound 155, (S/R)-6-(3-(2-bromophenyl)-4-methylpiperazin-1-yl)-N4-methylpyrimidine-2,4-diamine]
< 0.5 µM	CC(C)c1cc(N2CCNC(c3cc(C(=O)N4CCN(C)CC4)ccc3Br)C2)nc(N)n1 (single isomer, unassigned) [Compound 17, (R/S)-(3-(4-(2-amino-6-isopropylpyrimidin-4-yl)piperazin-2-yl)-4-bromophenyl)(4-methylpiperazin-1-yl)methanone]
< 0.5 µM	CC(C)c1cc(N2CCNC(c3cc(N4CCNCC4)ccc3Br)C2)nc(N)n1 (stereo not shown) [Compound 41, 4-(3-(2-bromo-5-(piperazin-1-yl)phenyl)piperazin-1-yl)-6-isopropylpyrimidin-2-amine]
< 0.5 µM	Nc1cc(N2CCNC(c3ccccc3Br)C2)nc(N)n1 (stereo not shown) [Compound 172, 6-(3-(2-bromophenyl)piperazin-1-yl)pyrimidine-2,4-diamine]
0.5 to 5 µM	CC(C)c1cc(N2CCOC(c3ccccc3Br)C2)nc(N)n1 (single isomer, unassigned) [Compound 159, (S/R)-4-(2-(2-bromophenyl)morpholino)-6-isopropylpyrimidin-2-amine]
0.5 to 5 µM	CNc1nc(C(C)C)cc(N2CCNC(c3ccccc3Br)C2)n1 (single isomer, unassigned) [Compound 153, R or S-4-(3-(2-bromophenyl)piperazin-1-yl)-6-isopropyl-N-methylpyrimidin-2-amine]
> 5 µM	CC(C)Nc1nc(C(C)C)cc(N2CCNC(c3ccccc3Br)C2)n1 (single isomer, unassigned) [Compound 151, (R/S)-4-(3-(2-bromophenyl)piperazin-1-yl)-N,6-diisopropylpyrimidin-2-amine]
